The values below come from patent publication US20040220164A1, “Triaza compound immunoregulatory agents” (priority 2001, published 2004).

In brackets after ≈: the same amount, converted by molar mass. Read-outs that look alike come from different tables or passages of the source. Where only a bound is given, the exact number is not on record here.

In series [1] the test system is HIV-1 strain NL4.3. Kind of series: Anti-HIV-1 assay in MT-4 cells (p24 Ag ELISA, Example 3). The settings on record: Human immunodeficiency virus 1, MT4; MT-4 cells; read-out: IC50 HIV-1 (NL4.3), p24 Ag ELISA. Format: cell-based. Here is the method: Antiviral Assays. For HIV-1, MT-4 cells were infected with the HIV-1 strain NL4.3. Briefly, five-fold dilutions of the compounds (in 100 μl) were added to 96-well flat bottom plates (Iwaki, Japan). Then, to each well, 7.5×10^4 MT-4 cells were added in 50 μl medium, followed by 50 μl of diluted HIV-1 stock (strain NL4.3). Cytopathic effect (CPE) induced by the virus was checked regularly microscopically. When strong CPE was observed (after 3 to 5 days of incubation) in untreated HIV-1 infected cells, the supernatant was collected, stored at −20° C. and analyzed for HIV-1 core antigen by p24 Ag ELISA (NEN™, PerkinElmer Life Sciences, Boston, Mass.). Finally, the IC50 value of the compounds (i.e., the concentration of the compound required for 50% reduction of HIV infection as measured by viral p24 antigen level in the supernatant of infected MT-4 cells) was calculated.
(ELISA stands for enzyme-linked immunosorbent assay.)

Series [2] deals with T1, CD4 (Homo sapiens, UniProt P01730). Description: CD4 down-modulation, flow cytometry with FITC-conjugated anti-CD4 (SK3) mAb, MT-4 cells. Format: cell-based. More on the design: To study the effect of the CADA derivatives on surface CD4 antigen expression, MT-4 and SupT1 cells were incubated; endogenous in cells; host or cells: MT-4, SupT1, PBMC. The settings on record: for IC50: MT-4 cells, day 3, read-out: IC50 CD4 (50% inhibition of extracellular CD4 expression) (converted); for CD4 down-modulating activity compared with CADA or parent analog (in words): structure-activity discussion of Table 5 (MT-4 and SupT1 cells). Here is the method:
Flow Cytometric Analyses. To study the effect of the CADA derivatives on surface CD4 antigen expression, MT-4 and SupT1 cells were incubated with a serial 5-fold dilution of the compounds (50, 10, 2, 0.4 and 0.08 μg/ml) or medium at 37° C. […] Briefly, after washing with phosphate-buffered saline (PBS) containing 2% fetal calf serum (FCS), cells were incubated with FITC-conjugated anti-CD4 (SK3) mAb for 30 min at 4° C. As a negative control for a specific background staining, cells were stained in parallel with Simultest Control γ1/γ^2a (Becton Dickinson). Then the cells were washed, fixed with 1% formaldehyde and analyzed by flow cytometry in a FACScalibur (Becton Dickinson, San Jose, Calif., USA). Data were acquired and analyzed with CellQuest software (Becton Dickinson). For the calculation of the CD4 receptor expression, the mean fluorescence intensity (MFI) of each sample was expressed as percentage of the MFI of control cells (after subtracting the MFI of the isotype control). Finally, the IC50 value of the compounds (i.e., the concentration of the compound required for 50% inhibition of extracellular CD4 expression) was calculated.
(Flow cytometry measures light scatter and fluorescence of single cells or particles in a stream.)

For series [3], the target named is T1, CD4. Description: Cell surface CD4 expression by flow cytometry (anti-CD4 mAb Leu3a-PE). The format is cell-based. More on the design: To study the effect of the CADA derivatives on surface CD4 antigen expression, MT-4 and SupT1 cells were incubated; endogenous in cells; host or cells: MT-4, SupT1, PBMC. On the procedure:
FIGS. 2A-2C. Surface CD4 expression in MT-4 cell line, SupT1 cell line and PBMCs after incubation with CADA hydrochloride (3.2 or 16 μM) for 1 and 4 days. (A) Cell surface CD4 expression of control MT-4 cells and MT-4 cells treated with CADA (3.2 μM) for 1 day or 4 days. (B) Cell surface CD4 expression of control SupT1 cells and SupT1 cells treated with CADA (3.2 μM) for 1 day or 4 days. (C) Cell surface CD4 expression of control PBMCs and PBMCs treated with CADA (16 μM) for 1 day or 4 days. The cells were stained with anti-CD4 mAb (Leu3a-PE). Percentages of fluorescent cells and MFI (mean fluorescence intensity) are indicated in each histogram.
FIG. 4. Comparison of the effects on CD4 modulation by ATA (24 μM), CADA hydrochloride (16 μM) and PMA (8 nM) in SupT1 cells after incubation with the compounds analyzed after 20 minutes, 4 hours, 1 day and 4 days.
Cells were incubated with CADA hydrochloride and the CD4 expression on the cell surface was analyzed. […] In peripheral blood mononuclear cells (PBMCs), the percentage of CD4 expression decreased to 0.2% after incubation with CADA (16 μM) for 4 days (FIG. 2).
Expression of various other surface antigens was also examined in MT-4 cells, SupT1 cells and PBMCs after incubation with CADA (16 μM) or CADA-free medium at 37° C. for 4 days. After washing with phosphate-buffered saline (PBS) containing 2% FCS(fetal calf serum), the cells were incubated with mAb (as indicated in Table 1) for 20 min at 4° C. Then the cells were washed, fixed with 1% formaldehyde and analyzed by flow cytometry. All mAbs were purchased from Becton-Dickinson (Erembodegem, Belgium).
CADA was compared with ATA and PMA with regard to their down-modulating effects. […] At day 4, the CD4 expression in SupT1 cells treated with CADA reduced to 1.2%.

In series [4] the test system is HHV-7 (KHR strain). Kind of series: Anti-HHV-7 assay in SupT1 cells (antigen expression, flow cytometry, Example 3). Format: cell-based. As to conditions: SUP-T1; SupT1 cells; read-out: IC50 HHV-7 (50% reduction of HHV-7 antigen expression). Here is the method:
For HHV-7, five-fold dilutions of the compounds were added in 500 μl culture medium in 24-well flat bottom plates (Iwaki, Japan), whereupon 2×10^5 SupT1 cells were added in 400 μl culture medium. After 30 min incubation at room temperature, 100 μl of HHV-7 stock was added to each well. HHV-7-infected and mock-infected SupT1 cells were cultured in a final volume of 1 ml medium in the absence of the compounds. On day 4, half of the medium and the cells were replaced and fresh medium without new compound was added. This procedure was repeated every 2 or 3 days. The CPE was checked regularly microscopically. When CPE was observed, the HHV-7 antigen expression was monitored by flow cytometry, as described previously (Zhang, Y. et al. (1999) “Selective activity of various antiviral compounds against HHV-7 infection Antiviral Res. 43, 23-35.)

A short description of series [5]: Cytotoxicity assay (trypan blue exclusion, propidium iodide). The settings on record: human, read-out: CC50 (50% cytotoxic concentration). The format is cell-based, human. On the procedure: Cytotoxicity Assay. Cellular toxicity of the compounds was measured by trypan blue exclusion and also by Propidium Iodide by flow cytometry after 3 or 4 days of incubation, in parallel with the CD4 antigen expression. The CC50 value of each CADA analog is the concentration (in μg/ml) required to reduce the viability of the cells by 50%.

The target of series [6] is T1, CD4. Kind of series: CD4 down-modulation, flow cytometry with FITC-conjugated anti-CD4 (SK3) mAb, SupT1 cells. The format is cell-based. Further details: To study the effect of the CADA derivatives on surface CD4 antigen expression, MT-4 and SupT1 cells were incubated; endogenous in cells; host or cells: MT-4, SupT1, PBMC. The settings on record: for IC50: day 4, read-out: IC50 CD4 (50% inhibition of extracellular CD4 expression) (converted). Here is the method: Flow Cytometric Analyses. To study the effect of the CADA derivatives on surface CD4 antigen expression, MT-4 and SupT1 cells were incubated with a serial 5-fold dilution of the compounds (50, 10, 2, 0.4 and 0.08 μg/ml) or medium at 37° C. Cell surface CD4 antigen expression was analyzed at day 3 (MT-4) or day 4 (SupT1). Briefly, after washing with phosphate-buffered saline (PBS) containing 2% fetal calf serum (FCS), cells were incubated with FITC-conjugated anti-CD4 (SK3) mAb for 30 min at 4° C. As a negative control for a specific background staining, cells were stained in parallel with Simultest Control γ1/γ^2a (Becton Dickinson). Then the cells were washed, fixed with 1% formaldehyde and analyzed by flow cytometry in a FACScalibur (Becton Dickinson, San Jose, Calif., USA). Data were acquired and analyzed with CellQuest software (Becton Dickinson). For the calculation of the CD4 receptor expression, the mean fluorescence intensity (MFI) of each sample was expressed as percentage of the MFI of control cells (after subtracting the MFI of the isotype control). Finally, the IC50 value of the compounds (i.e., the concentration of the compound required for 50% inhibition of extracellular CD4 expression) was calculated.

As a reminder, the IC50 is the concentration that gives 50% inhibition. In the case of `C=C1CN(S(=O)(=O)c2ccc(C)cc2)CCCN(C(C)C)CCCN(S(=O)(=O)c2ccc(C)cc2)C1` [QJ035], the IC50 in series [1] is 5.55 µg/mL (≈ 10.4 µM); in series [2] it was 11.4 µM; in series [4] it was 1.4 µg/mL (≈ 2.62 µM); in series [6], over 18.7 µM. Besides, in series [2] (compared to CADA, MT-4 cells (stated for some compounds)), the “CD4 down-modulating activity, fold less active than CADA” value amounted to 17 fold. Moreover, the “down-regulation of CD4 expression (in words)” value in series [3] was “down-regulate CD4 expression”. The CC50 in series [5] (MT-4 cells) came out at 22.2 µg/mL (≈ 41.6 µM); in series [5] (SupT1 cells) it was 23 µg/mL (≈ 43.1 µM). In addition, in series [6], the “CD4 down-regulation (in words)” value is “not active”.

For the molecule `C=C1CN(S(=O)(=O)c2ccc(C)cc2)CCCN(C(C)CC)CCCN(S(=O)(=O)c2ccc(C)cc2)C1` (stereo not shown) [QJ036], the IC50 is 0.95 µg/mL (≈ 1.73 µM) in series [1], 2.12 µM in series [2], 1.19 µg/mL (≈ 2.17 µM) in series [4] and 3.27 µM in series [6]. Besides, the “CD4 down-modulating activity compared with CADA or parent analog (in words)” value in series [2] is “somewhat in between”. The “down-regulation of CD4 expression (in words)” value in series [3] is “down-regulate CD4 expression”. The CC50 is 20.9 µg/mL (≈ 38.2 µM) in series [5] (MT-4 cells) and over 50 µg/mL in series [5] (SupT1 cells).

Take `C=C1CN(S(=O)(=O)c2ccc(C)cc2)CCCN(CC(C)CC)CCCN(S(=O)(=O)c2ccc(C)cc2)C1` (stereo not shown) [QJ037]: the half-maximal inhibitory concentration (IC50) in series [1] was 0.48 µg/mL (≈ 0.854 µM); in series [2] it was 0.943 µM; in series [4], 0.13 µg/mL (≈ 0.231 µM); in series [6], 1.23 µM. The “down-regulation of CD4 expression (in words)” value in series [3] is reported as “down-regulate CD4 expression”. The CC50 in series [5] (MT-4 cells) was determined as 22.1 µg/mL (≈ 39.3 µM); in series [5] (SupT1 cells) it was 24 µg/mL (≈ 42.7 µM).

`C=C1CN(S(=O)(=O)c2ccc(C)cc2)CCCN(CCC(C)C)CCCN(S(=O)(=O)c2ccc(C)cc2)C1` [QJ038]: the IC50 in series [1] was 0.31 µg/mL (≈ 0.552 µM); in series [2] it was 0.73 µM; in series [4], 0.34 µg/mL (≈ 0.605 µM); in series [6] it was 0.854 µM. Moreover, in series [3], the “down-regulation of CD4 expression (in words)” value is reported as “down-regulate CD4 expression”. For the same molecule, the CC50 is 19.4 µg/mL (≈ 34.5 µM) in series [5] (MT-4 cells) and 8.4 µg/mL (≈ 15 µM) in series [5] (SupT1 cells).

Turning to `C=C1CN(S(=O)(=O)c2ccc(C)cc2)CCCN(C2CCCC2)CCCN(S(=O)(=O)c2ccc(C)cc2)C1` [QJ040], the IC50 in series [1] was 4.23 µg/mL (≈ 7.56 µM); in series [2], 9.54 µM; in series [4] it was 1.55 µg/mL (≈ 2.77 µM); in series [6], 14.1 µM. Further, the “down-regulation of CD4 expression (in words)” value in series [3] is reported as “down-regulate CD4 expression”. The CC50 in series [5] (MT-4 cells) came out at 17 µg/mL (≈ 30.4 µM); in series [5] (SupT1 cells) it was 20.5 µg/mL (≈ 36.6 µM).

`C=C1CN(S(=O)(=O)c2ccc(C)cc2)CCCN(CC2CC2)CCCN(S(=O)(=O)c2ccc(C)cc2)C1` [QJ041]: the IC50 in series [1] was 3.66 µg/mL (≈ 6.71 µM); in series [2], 6.38 µM; in series [4], 1.76 µg/mL (≈ 3.22 µM); in series [6] it was 7.6 µM. Moreover, in series [2], the “CD4 down-modulating activity compared with CADA or parent analog (in words)” value was “reduced the activity”. Moreover, in series [3], the “down-regulation of CD4 expression (in words)” value was “down-regulate CD4 expression”. Besides, the CC50 in series [5] (MT-4 cells) came out at 18.6 µg/mL (≈ 34.1 µM); in series [5] (SupT1 cells), 21.9 µg/mL (≈ 40.1 µM).
